Results: patent US11634466B2, “Musclin peptides and methods of use thereof” (UNIVERSITY OF IOWA RESEARCH FOUNDATION, priority 2016, dated 2023)

Legend:
[1] = Plasma musclin level by custom ELISA after osmotic pump infusion of musclin; type: in vivo; conditions: WT mice, musclin 1 ng/g/h i.p. by osmotic pump for 7 d
Method: Whole body composition was obtained by time-domain nuclear magnetic resonance under isoflurane anesthesia (Bruker Minispec; Billerica, Mass.). Osmotic pumps: Osmotic pumps (model 1004, 100 μl volume, 0.11 μl/hr release rate, 28 days duration, Alzet Durect, Cupertino, Calif.), loaded with saline vs. 50 μg of mouse musclin peptide (SFSGFGSPLDRLSAG SVEHRGKQRKAVDHSKKR (SEQ ID NO: 4), corresponding to amino acids 80-112, Gen Bank ID: AAS87598.1, synthesized by Biosynthesis, Lewisville, Tex.) were surgically implanted within the peritoneal cavity of mice under sterile conditions and general anesthesia. Mice recovered for 7 days before exercise testing was performed.
Terminal blood collection was performed by direct cardiac puncture.
96-well ELISA Maxisorp plates (Nunc) were coated with custom rabbit anti-musclin IgG (Anaspec) at 1 μg/well in BupH carbonate-bicarbonate buffer, pH 9.4 (Thermo Scientific) at 4° C. overnight. On the next day plates were washed with TBS/0.05% Tween 20 and blocked with 5% BSA/TBS for 1 hr at room temperature. Synthetic musclin peptide was used as a standard (NH2-sfsgfgspldrlsagsvehrgkqrkavdhskkr-COOH (SEQ ID NO: 28), corresponding to amino acids 80-112, Gen Bank ID: AAS87598.1, synthesized by Biosynthesis, Lewisville, Tex.). […] Fluorescence was detected at 325/420 nm.

[2] = test system: cGMP production in murine primary myoblasts; assay: cGMP production in skeletal myoblast culture exposed to ANP and musclin; type: cell-based; conditions: n=3
Method: Cyclic GMP levels were measured using cyclicGMP EIA kit (Cayman Chemical Company, Ann Arbor, Mich.). Mice were exercised for 5 days, 12 m/min, 45 min before tissue collection. At the day of the experiment mice were exercised 12 m/min, 20 min, sedated with isoflurane and gastrocnemius muscle tissue was collected. Cyclic nucleotides were extracted using 5% trichloracetic acid. Samples were acetylated and used for cGMP level measurements according to the manufacturer's protocol.
Mouse primary myoblasts were isolated from gastrocnemius muscle of 4-6 weeks old mice. Fresh muscle tissue was digested with 2 mg/ml collagenase II in DMEM-F12 for 1.5 h at 37° C.; then 30 min at 37° C. with 1 mg/ml collagenase II and 0.5 mg/ml dispase in DMEM-F12. Tissue was ground and passed through a 100 μm then 70 μm cell strainer and spun at 1000 rpm for 10 min. Myoblasts were resuspended in DMEM-F12 supplemented with 20% FBS, 40 ng/ml bFGF, non-essential amino acids, 1 mM β-mercaptoethanol. Cells were plated on matrigel coated dishes. Cells were maintained in DMEM-F12 supplemented with 20% FBS, 10 ng/ml bFGF, non-essential amino acids, 1 mM β-mercaptoethanol until 80% confluent. Then they were differentiated in DMEM-F12 supplemented with 2% FBS and insulin-transferrin-selenium for 10 days. Human skeletal myoblast primary culture (lot #SLSK002, Zenbio, Research Triangle Park, NC) was maintained according to the supplier's manual.

[3] = target: T1, NP clearance receptor, NPRC (Homo sapiens, UniProt P17342); conditions: background statement; cited from earlier work
T1 sequence (P17342 27-541): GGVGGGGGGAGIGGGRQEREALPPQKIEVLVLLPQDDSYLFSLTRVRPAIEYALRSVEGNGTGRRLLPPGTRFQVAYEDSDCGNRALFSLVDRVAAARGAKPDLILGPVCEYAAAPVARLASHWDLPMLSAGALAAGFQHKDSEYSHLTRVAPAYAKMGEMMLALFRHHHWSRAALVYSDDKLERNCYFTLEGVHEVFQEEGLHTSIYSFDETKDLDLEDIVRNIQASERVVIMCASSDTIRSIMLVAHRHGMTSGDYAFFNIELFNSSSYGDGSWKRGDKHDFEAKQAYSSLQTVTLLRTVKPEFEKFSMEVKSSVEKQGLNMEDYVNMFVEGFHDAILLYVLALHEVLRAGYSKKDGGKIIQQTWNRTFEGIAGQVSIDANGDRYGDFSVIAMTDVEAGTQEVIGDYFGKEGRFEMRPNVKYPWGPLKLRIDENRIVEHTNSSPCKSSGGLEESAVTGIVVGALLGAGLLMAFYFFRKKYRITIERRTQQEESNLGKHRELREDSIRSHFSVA

NPRA = target: T2, NPRA (Homo sapiens, UniProt P16066); conditions: background statement; without activating the linked guanylyl cyclase; cited from earlier work
T2 sequence (P16066 33-1061): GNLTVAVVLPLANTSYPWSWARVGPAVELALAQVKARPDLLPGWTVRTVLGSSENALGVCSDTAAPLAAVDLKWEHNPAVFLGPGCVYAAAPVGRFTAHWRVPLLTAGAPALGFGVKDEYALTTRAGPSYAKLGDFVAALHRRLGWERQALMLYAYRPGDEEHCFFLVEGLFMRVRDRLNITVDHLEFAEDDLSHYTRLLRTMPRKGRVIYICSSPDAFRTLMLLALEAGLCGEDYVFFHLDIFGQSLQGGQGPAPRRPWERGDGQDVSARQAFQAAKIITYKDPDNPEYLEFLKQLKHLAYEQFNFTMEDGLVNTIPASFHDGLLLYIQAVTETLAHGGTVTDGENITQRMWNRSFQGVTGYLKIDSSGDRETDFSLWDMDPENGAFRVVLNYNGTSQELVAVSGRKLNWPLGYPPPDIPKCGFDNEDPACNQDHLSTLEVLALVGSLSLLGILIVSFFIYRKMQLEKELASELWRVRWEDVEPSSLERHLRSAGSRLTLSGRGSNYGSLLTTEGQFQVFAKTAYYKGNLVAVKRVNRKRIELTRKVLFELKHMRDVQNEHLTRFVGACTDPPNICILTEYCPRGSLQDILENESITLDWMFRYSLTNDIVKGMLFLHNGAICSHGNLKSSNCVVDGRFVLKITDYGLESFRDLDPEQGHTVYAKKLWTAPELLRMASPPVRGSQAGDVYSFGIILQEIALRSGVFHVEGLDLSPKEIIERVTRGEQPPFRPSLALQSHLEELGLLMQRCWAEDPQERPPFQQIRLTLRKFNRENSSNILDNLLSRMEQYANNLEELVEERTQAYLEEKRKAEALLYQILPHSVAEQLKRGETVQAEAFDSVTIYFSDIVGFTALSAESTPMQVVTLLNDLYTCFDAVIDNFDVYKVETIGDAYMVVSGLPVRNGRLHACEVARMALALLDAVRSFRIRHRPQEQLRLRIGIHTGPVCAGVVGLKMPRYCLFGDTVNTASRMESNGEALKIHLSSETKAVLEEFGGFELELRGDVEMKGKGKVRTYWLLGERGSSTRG

## H-SFSGFGSPLDRLSAGSVEHRGKQRKAVDHSKKR-OH [musclin]
[1]
  plasma level induced by musclin infusion: comparable with that observed after exercise training
[2]; 1 μM musclin without ANP
  cGMP production: 0.104±0.006 fmol/μg protein
[2]; 5 μM musclin without ANP
  cGMP production: 0.117±0.003 fmol/μg protein
[3]
  binding to NPRC: affinity comparable to NPs
NPRA
  binding to NPRA: weak binding
